Experimental data from ChEMBL document CHEMBL5608177, “Antitumor activity and transcriptome sequencing (RNA-seq) analyses of hepatocellular carcinoma cells in response to exposure triterpene-nucleoside conjugates” (Eur J Med Chem, 2024).
Activity calls are given as the source filed them. The rule behind the calls is not given here.

What was measured:
[1] = system: HeLa; assay: Antiproliferative activity against human HeLa cells assessed as inhibition of cell growth incubated for 48 hrs by CCK-8 reagent based spectrophotometric analysis; assay type: functional
[2] = system: SMMC-7721; assay: Antiproliferative activity against human SMMC-7721 cells assessed as inhibition of cell growth incubated for 48 hrs by CCK-8 reagent based spectrophotometric analysis; assay type: functional; conditions: SMMC-7721, 48 h
[3] = system: PC-3; assay: Antiproliferative activity against human PC-3 cells assessed as inhibition of cell growth incubated for 48 hrs by CCK-8 reagent based spectrophotometric analysis; assay type: functional; conditions: PC-3, 48 h
[4] = system: SW-620; assay: Antiproliferative activity against human SW620 cells assessed as inhibition of cell growth incubated for 48 hrs by CCK-8 reagent based spectrophotometric analysis; assay type: functional; conditions: SW-620, 48 h
[5] = system: A549; assay: Antiproliferative activity against human A549 cells assessed as inhibition of cell growth incubated for 48 hrs by CCK-8 reagent based spectrophotometric analysis; assay type: functional; conditions: A549, 48 h
[6] = system: SMMC-7721; assay: Induction of apoptosis in human SMMC-7721 cells assessed as viable cells at 5 uM incubated for 24 hrs by Annexin V-FITC and propidium iodide staining based flow cytometric analysis (reference value: 99 %); assay type: functional; conditions: read-out: Activity
[7] = system: SMMC-7721; assay: Induction of apoptosis in human SMMC-7721 cells assessed as viable cells at 10 uM incubated for 24 hrs by Annexin V-FITC and propidium iodide staining based flow cytometric analysis (reference value: 99 %); assay type: functional; conditions: read-out: Activity
[8] = system: SMMC-7721; assay: Induction of apoptosis in human SMMC-7721 cells assessed as viable cells at 20 uM incubated for 24 hrs by Annexin V-FITC and propidium iodide staining based flow cytometric analysis (reference value: 99 %); assay type: functional; conditions: read-out: Activity
[9] = system: SMMC-7721; assay: Induction of apoptosis in human SMMC-7721 cells assessed as necrotic cells at 10 uM incubated for 24 hrs by Annexin V-FITC and propidium iodide staining based flow cytometric analysis (reference value: 0.61 %); assay type: functional
[10] = system: SMMC-7721; assay: Induction of apoptosis in human SMMC-7721 cells assessed as necrotic cells at 5 uM incubated for 24 hrs by Annexin V-FITC and propidium iodide staining based flow cytometric analysis (reference value: 0.61 %); assay type: functional
[11] = system: SMMC-7721; assay: Induction of apoptosis in human SMMC-7721 cells assessed as late apoptotic cells at 5 uM incubated for 24 hrs by Annexin V-FITC and propidium iodide staining based flow cytometric analysis (reference value: 0.14 %); assay type: functional
[12] = system: SMMC-7721; assay: Induction of apoptosis in human SMMC-7721 cells assessed as late apoptotic cells at 10 uM incubated for 24 hrs by Annexin V-FITC and propidium iodide staining based flow cytometric analysis (reference value: 0.14 %); assay type: functional
[13] = system: SMMC-7721; assay: Induction of apoptosis in human SMMC-7721 cells assessed as necrotic cells at 20 uM incubated for 24 hrs by Annexin V-FITC and propidium iodide staining based flow cytometric analysis (reference value: 0.61 %); assay type: functional
[14] = system: SMMC-7721; assay: Induction of apoptosis in human SMMC-7721 cells assessed as viable cells at 15 uM incubated for 24 hrs in presence of 3-MA by Annexin V-FITC and propidium iodide staining based flow cytometric analysis (reference value: 99.2 %); assay type: functional; conditions: read-out: Activity
[15] = system: SMMC-7721; assay: Induction of apoptosis in human SMMC-7721 cells assessed as viable cells at 15 uM incubated for 24 hrs in presence of Nec1 by Annexin V-FITC and propidium iodide staining based flow cytometric analysis (reference value: 99.2 %); assay type: functional; conditions: read-out: Activity
[16] = system: SMMC-7721; assay: Induction of apoptosis in human SMMC-7721 cells assessed as early apoptotic cells at 15 uM incubated for 24 hrs by Annexin V-FITC and propidium iodide staining based flow cytometric analysis (reference value: 0.07 %); assay type: functional
[17] = system: SMMC-7721; assay: Induction of apoptosis in human SMMC-7721 cells assessed as early apoptotic cells at 15 uM incubated for 24 hrs in presence of 3-MA by Annexin V-FITC and propidium iodide staining based flow cytometric analysis (reference value: 0.07 %); assay type: functional
[18] = system: SMMC-7721; assay: Induction of apoptosis in human SMMC-7721 cells assessed as early apoptotic cells at 15 uM incubated for 24 hrs in presence of zVAD by Annexin V-FITC and propidium iodide staining based flow cytometric analysis (reference value: 0.07 %); assay type: functional
[19] = system: SMMC-7721; assay: Induction of apoptosis in human SMMC-7721 cells assessed as early apoptotic cells at 15 uM incubated for 24 hrs in presence of Nec1 by Annexin V-FITC and propidium iodide staining based flow cytometric analysis (reference value: 0.07 %); assay type: functional
[20] = system: SMMC-7721; assay: Induction of apoptosis in human SMMC-7721 cells assessed as late apoptotic cells at 15 uM incubated for 24 hrs by Annexin V-FITC and propidium iodide staining based flow cytometric analysis (reference value: 0.09 %); assay type: functional
[21] = system: SMMC-7721; assay: Induction of apoptosis in human SMMC-7721 cells assessed as late apoptotic cells at 15 uM incubated for 24 hrs in presence of 3-MA by Annexin V-FITC and propidium iodide staining based flow cytometric analysis (reference value: 0.09 %); assay type: functional
[22] = system: SMMC-7721; assay: Induction of apoptosis in human SMMC-7721 cells assessed as late apoptotic cells at 15 uM incubated for 24 hrs in presence of zVAD by Annexin V-FITC and propidium iodide staining based flow cytometric analysis (reference value: 0.09 %); assay type: functional
[23] = system: SMMC-7721; assay: Induction of apoptosis in human SMMC-7721 cells assessed as late apoptotic cells at 15 uM incubated for 24 hrs in presence of Nec1 by Annexin V-FITC and propidium iodide staining based flow cytometric analysis (reference value: 0.09 %); assay type: functional
[24] = system: SMMC-7721; assay: Induction of apoptosis in human SMMC-7721 cells assessed as necrotic cells at 15 uM incubated for 24 hrs in presence of 3-MA by Annexin V-FITC and propidium iodide staining based flow cytometric analysis (reference value: 0.65 %); assay type: functional
[25] = system: SMMC-7721; assay: Induction of apoptosis in human SMMC-7721 cells assessed as necrotic cells at 15 uM incubated for 24 hrs in presence of zVAD by Annexin V-FITC and propidium iodide staining based flow cytometric analysis (reference value: 0.65 %); assay type: functional
[26] = system: SMMC-7721; assay: Induction of apoptosis in human SMMC-7721 cells assessed as necrotic cells at 15 uM incubated for 24 hrs in presence of Nec1 by Annexin V-FITC and propidium iodide staining based flow cytometric analysis (reference value: 0.65 %); assay type: functional
[27] = system: SMMC-7721; assay: Induction of apoptosis in human SMMC-7721 cells at 10 uM incubated for 24 hrs by Annexin V-FITC and propidium iodide staining based flow cytometric analysis relative to control; assay type: functional
[28] = system: SMMC-7721; assay: Induction of autophagy in human SMMC-7721 cells assessed as cell structure destruction at 10 uM incubated for 24 hrs by TEM analysis; assay type: functional, cell-based
[29] = system: SMMC-7721; assay: Induction of autophagy in human SMMC-7721 cells assessed as formation of autolysosomes at 10 uM incubated for 24 hrs by TEM analysis; assay type: functional, cell-based
[30] = system: SMMC-7721; assay: Induction of autophagy in human SMMC-7721 cells assessed as formation of autophagosome at 10 uM incubated for 24 hrs by TEM analysis; assay type: functional, cell-based
[31] = Toxicity in Zebrafish embryo assessed as reduction in survival rate at upto 100 uM incubated for 48 hrs by microscopic analysis; set-up: species or system Danio rerio; conditions: in vivo

| SMILES | IC50 [1] [µM] | IC50 [2] [µM] | IC50 [3] [µM] | IC50 [4] [µM] | IC50 [5] [µM] | viability at 5 µM [6] [%] | viability at 10 µM [7] [%] | viability at 20 µM [8] [%] | Activity [9] [%] | Activity [10] [%] | Activity [11] [%] | Activity [12] [%] | Activity [13] [%] | viability at 15 µM [14] [%] | viability at 15 µM [15] [%] | Activity [16] [%] | Activity [17] [%] | Activity [18] [%] | Activity [19] [%] | Activity [20] [%] | further results |
| --- | --- | --- | --- | --- | --- | --- | --- | --- | --- | --- | --- | --- | --- | --- | --- | --- | --- | --- | --- | --- | --- |
| C=C(C)[C@@H]1CC[C@]2(C(=O)OC)CC[C@]3(C)[C@H](CC[C@@H]4[C@@]5(C)C[C@@H](Cc6cn([C@]7(CO)O[C@@H](n8ccc(O)nc8=O)[C@@H](F)[C@@H]7O)nn6)C(=O)C(C)(C)[C@@H]5CC[C@]43C)[C@@H]12 | 11.8 | 7.73 | 22.9 | 10.9 | 17.7 | 99 | 96.2 | 62.3 | 2.69 | 0.69 | 0.16 | 0.78 | 19.8 | 86.2 | 87.4 | 0.06 | 0.05 | 0.03 | 0.23 | 11.4 | Activity [21]: 2.54%; Activity [22]: 8.65%; Activity [23]: 9.13%; Activity [24]: 11.2%; Activity [25]: 9.3%; Activity [26]: 3.24%; Activity [27]: 0.42%; Activity [28]: Active; Activity [29]: Active; Activity [30]: Active; Activity [31]: Non-Toxic |
| C=C(C)[C@@H]1CC[C@]2(C(=O)OC)CC[C@]3(C)[C@H](CC[C@@H]4[C@@]5(C)C[C@@H](Cc6cn([C@H]7C[C@H](n8cc(C)c(O)nc8=O)O[C@@H]7CO)nn6)C(=O)C(C)(C)[C@@H]5CC[C@]43C)[C@@H]12 | 6.07 | 5.02 | 10.1 | 4.61 | 11.9 | 98.4 | 91.7 | 58 | 1.48 | 0.56 | 0.77 | 6.31 | 23 | 91.6 | 83.6 | 0.04 | 0.23 | 0.04 | 0.19 | 15.2 | Activity [21]: 6.4%; Activity [22]: 2.77%; Activity [23]: 10.8%; Activity [24]: 1.77%; Activity [25]: 9.33%; Activity [26]: 5.17%; Activity [27]: 0.54%; Activity [28]: Active; Activity [29]: Active; Activity [30]: Active; Activity [31]: Non-Toxic |
